The compounds below were run on HCV 1b-377-neo replicon cells (assay: HCV replicon assay, HCV 1b-377-neo replicon cells (1b FRET)). Conditions: HCV 1b-377-neo replicon cells; HCV 1b genotype; read-out: EC50 range against HCV 1b (Table 2, Range).
Format: cell-based, Hepatitis C virus genotype 1b
Summary of the method: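 Compounds were tested in genotype 1b subgenomic replicon cells carrying a neomycin marker, alongside a matched replicon line with an NS5A Y2065H substitution that confers resistance to a reference NS5A inhibitor.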
`CCC[C@H](NC(=O)OC)C(=O)N1CCC[C@H]1c1ncc(-c2ccc(-c3ccc(-c4cnc([C@@H]5CCCN5C(=O)[C@H](CCC)NC(=O)OC)[nH]4)cc3)cc2)[nH]1` [Example M27, methyl ((1S)-1-(((2S)-2-(5-(4′-(2-((2S)-1-((2S)-2-((methoxycarbonyl)amino)pentanoyl)-2-pyrroldinyl)-1H-imidazol-5-yl)-4-biphenylyl)-1H-imidazol-2-yl)-1-pyrrolidinyl)carbonyl)butyl)carbamate] gave an EC50 of 1 to 99 nM.
`COC(=O)N[C@@H](CC(N)=O)C(=O)N1CCC[C@H]1c1ncc(-c2ccc(-c3ccc(-c4cnc([C@@H]5CCCN5C(=O)[C@@H](NC(=O)OC)C(C)C)[nH]4)cc3)cc2)[nH]1` [Example M91y, methyl ((1S)-3-amino-1-(((2S)-2-(5-(4′-(2-((2S)-1-((2S)-2-((methoxycarbonyl)amino)-3-methylbutanoyl)-2-pyrrolidinyl)-1H-imidazol-5-yl)-4-biphenylyl)-1H-imidazol-2-yl)-1-pyrrolidinyl)carbonyl)-3-oxopropyl)carbamate (non-preferred name)] showed an EC50 of 100 to 999 nM.
For `COC(=O)N[C@@H](C(=O)N1CCC[C@H]1c1ncc(-c2ccc(-c3ccc(-c4cnc([C@@H]5CCCN5C(=O)Cc5ccccc5CN5CCCC5)[nH]4)cc3)cc2)[nH]1)c1ccccc1` [Example 84-86, methyl ((1R)-2-oxo-1-phenyl-2-((2S)-2-(5-(4′-(2-((2S)-1-((2-(1-pyrrolidinylmethyl)phenyl)acetyl)-2-pyrrolidinyl)-1H-imidazol-5-yl)-4-biphenylyl)-1H-imidazol-2-yl)-1-pyrrolidinyl)ethyl)carbamate], the EC50 was 0.001 to 0.999 nM.

Same assay, conditions: Hepatitis C virus, HCV 1b-377-neo replicon cells; HCV 1b genotype; read-out: EC50 range against HCV 1b (Table 2, Range)
`COC(=O)N[C@@H](C)C(=O)N1CCC[C@H]1c1ncc(-c2ccc(-c3ccc(-c4cnc([C@@H]5CCCN5C(=O)[C@@H](NC(=O)OC)C(C)(C)C)[nH]4)cc3)cc2)[nH]1` [Example M95, methyl ((1S)-1-(((2S)-2-(5-(4′-(2-((2S)-1-(N-(methoxycarbonyl)-L-alanyl)-2-pyrrolidinyl)-1H-imidazol-5-yl)-4-biphenylyl)-1H-imidazol-2-yl)-1-pyrrolidinyl)carbonyl)-2,2-dimethylpropyl)carbamate] was tested, and the EC50 was 1 to 99 nM.
Work on `COC(=O)N[C@@H](C(=O)N1CCC[C@H]1c1ncc(-c2cnc(-c3cnc(-c4cnc([C@@H]5CCCN5C(=O)[C@H](NC(=O)OC)c5ccccc5)[nH]4)cn3)cn2)[nH]1)c1ccccc1` [Example 153c-6, dimethyl (2,2′-bipyrazine-5,5′-diylbis(1H-imidazole-5,2-diyl(2S)-2,1-pyrrolidinediyl((1R)-2-oxo-1-phenyl-2,1-ethanediyl)))biscarbamate] yielded an EC50 of 1 to 99 nM.
For `CN(C)C(C(=O)N1CCC[C@H]1c1ncc(-c2ccc(-c3ccc(-c4cnc([C@@H]5CCCN5C(=O)[C@@H](c5ccccc5)N(C)C)[nH]4)cc3)cc2)[nH]1)c1ccccn1` (stereo partly drawn) [Example 94-46, 2-((2S)-2-(5-(4′-(2-((2S)-1-((2R)-2-(dimethylamino)-2-phenylacetyl)-2-pyrrolidinyl)-1H-imidazol-5-yl)-4-biphenylyl)-1H-imidazol-2-yl)-1-pyrrolidinyl)-N,N-dimethyl-2-oxo-1-(2-pyridinyl)ethanamine], the EC50 was 0.001 to 0.999 nM.
Work on `CCN(CC)[C@@H](C(=O)N1CCC[C@H]1c1ncc(-c2ccc(-c3ccc(-c4cnc([C@@H]5CCCN5C(=O)[C@H](Cc5c[nH]nn5)NC(=O)OC)[nH]4)cc3)cc2)[nH]1)c1ccccc1` [cj-32, methyl ((1S)-2-((2S)-2-(5-(4′-(2-((2S)-1-((2R)-2-(diethylamino)-2-phenylacetyl)-2-pyrrolidinyl)-1H-imidazol-5-yl)-4-biphenylyl)-1H-imidazol-2-yl)-1-pyrrolidinyl)-2-oxo-1-(1H-1,2,3-triazol-4-ylmethyl)ethyl)carbamate] yielded an EC50 of 0.001 to 0.999 nM.
Compound `COC(=O)N[C@H](C(=O)N1CCC[C@H]1c1ncc(-c2ccc(-c3ccc(-c4cnc([C@@H]5CCCN5C(=O)[C@@H](NC(=O)OC)C(C)(C)C)[nH]4)cc3)cc2)[nH]1)C(C)(C)C` [Example M24, methyl ((1S)-1-(((2S)-2-(5-(4′-(2-((2S)-1-((2S)-2-((methoxycarbonyl)amino)-3,3-dimethylbutanoyl)-2-pyrrolidinyl)-1H-imidazol-5-yl)-4-biphenylyl)-1H-imidazol-2-yl)-1-pyrrolidinyl)carbonyl)-2,2-dimethylpropyl)carbamate] has an EC50 of 1 to 99 nM.
For `CCS(=O)(=O)N[C@H](C(=O)N1CCC[C@H]1c1nc(-c2ccc(-c3ccc(-c4c[nH]c([C@@H]5CCCN5C(=O)[C@@H](NS(=O)(=O)CC)C(C)C)n4)cc3)cc2)c[nH]1)C(C)C` [Example F67, N-((1S)-1-(((2S)-2-(4-(4′-(2-((2S)-1-((2S)-2-((ethylsulfonyl)amino)-3-methylbutanoyl)-2-pyrrolidinyl)-1H-imidazol-4-yl)-4-biphenylyl)-1H-imidazol-2-yl)-1-pyrrolidinyl)carbonyl)-2-methylpropyl)ethanesulfonamide], the EC50 was 1 to 99 nM.
`CCC(C)[C@@H](C(=O)N1CCC[C@H]1c1nc(-c2ccc(-c3ccc(-c4cnc([C@@H]5CCCN5C(=O)[C@H](C(C)CC)N(C)C(=O)OC(C)(C)C)[nH]4)cc3)cc2)c[nH]1)N(C)C(=O)OC(C)(C)C` (stereo partly drawn) [Example F29, tert-butyl ((1S)-1-(((2S)-2-(5-(4′-(2-((2S)-1-((2S)-2-((tert-butoxycarbonyl)(methyl)amino)-3-methylpentanoyl)-2-pyrrolidinyl)-1H-imidazol-4-yl)-4-biphenylyl)-1H-imidazol-2-yl)-1-pyrrolidinyl)carbonyl)-2-methylbutyl)methylcarbamate] was tested, and the EC50 was 1 to 99 nM.
`COC(=O)N[C@@H](C(=O)N1CCC[C@H]1c1ncc(-c2ccc(-c3ccc(-c4cnc([C@@H]5CCCN5C(=O)[C@@H](c5ccccc5)N(C)C)[nH]4)cc3C)cc2)[nH]1)c1ccccc1` [Example 126, methyl ((1R)-2-((2S)-2-(5-(4′-(2-((2S)-1-((2R)-2-(dimethylamino)-2-phenylacetyl)-2-pyrrolidinyl)-1H-imidazol-5-yl)-2′-methyl-4-biphenylyl)-1H-imidazol-2-yl)-1-pyrrolidinyl)-2-oxo-1-phenylethyl)carbamate] was tested, and the EC50 was 0.001 to 0.999 nM.
In the case of `COC(=O)N[C@@H](C(=O)N1[C@@H]2C[C@@H]2C[C@H]1c1nc(-c2ccc(-c3ccc(-c4c[nH]c([C@@H]5C[C@H]6C[C@H]6N5C(=O)[C@H](NC(=O)OC)c5ccccc5)n4)cc3)cc2)c[nH]1)c1ccccc1` [Example M137, dimethyl (4,4′-biphenyl-diylbis(1H-imidazole-4,2-diyl(1R,3S,5R)-2-azabicyclo[3.1.0]hexane-3,2-diyl((1R)-2-oxo-1-phenyl-2,1-ethanediyl)))biscarbamate], the EC50 is reported as 0.001 to 0.999 nM.
In the case of `CCNCC(=O)N1CCC[C@H]1c1ncc(-c2ccc(-c3ccc(-c4cnc([C@@H]5CCCN5C(=O)[C@@H](NC(=O)OC)C(C)C)[nH]4)cc3)cc2)[nH]1` [LS21, methyl ((1S)-1-(((2S)-2-(5-(4′-(2-((2S)-1-(N-ethylglycyl)-2-pyrrolidinyl)-1H-imidazol-5-yl)-4-biphenylyl)-1H-imidazol-2-yl)-1-pyrrolidinyl)carbonyl)-2-methylpropyl)carbamate], the EC50 is reported as 0.001 to 0.999 nM.
With `O=C(Cc1cccnc1)N[C@@H](C(=O)N1CCC[C@H]1c1ncc(-c2ccc(-c3ccc(-c4cnc([C@@H]5CCCN5C(=O)[C@H](NC(=O)Cc5cccnc5)c5ccccc5)[nH]4)cc3)cc2)[nH]1)c1ccccc1` [Example 25-4, N,N′-(4,4′-biphenyldiylbis(1H-imidazole-5,2-diyl(2S)-2,1-pyrrolidinediyl((1R)-2-oxo-1-phenyl-2,1-ethanediyl)))bis(2-(3-pyridinyl)acetamide)] the EC50 was 0.001 to 0.999 nM.
`CCN(CC)[C@H](C)C(=O)N1CCC[C@H]1c1ncc(-c2ccc(-c3ccc(-c4cnc([C@@H]5CCCN5C(=O)[C@@H](NC(=O)OC)C(C)C)[nH]4)c(F)c3)cc2F)[nH]1` [Example D59, methyl ((1S)-1-(((2S)-2-(5-(4′-(2-((2S)-1-(N,N-diethyl-D-alanyl)-2-pyrrolidinyl)-1H-imidazol-5-yl)-3,3′-difluoro-4-biphenylyl)-1H-imidazol-2-yl)-1-pyrrolidinyl)carbonyl)-2-methylpropyl) carbamate] showed an EC50 of 0.001 to 0.999 nM.
`CC[C@H](NC(=O)OC)C(=O)N1CC2(CC2)C[C@H]1c1nc(-c2ccc(-c3ccc(-c4c[nH]c([C@@H]5CC6(CC6)CN5C(=O)[C@H](CC)NC(=O)OC)n4)cc3)cc2)c[nH]1` [Example M148, dimethyl (4,4′-biphenyldiylbis(1H-imidazole-4,2-diyl(6S)-5-azaspiro[2.4]heptane-6,5-diyl((2S)-1-oxo-1,2-butanediyl)))biscarbamate] gave an EC50 of 0.001 to 0.999 nM.
Work on `COC(=O)N[C@@H](C(=O)N1CCC[C@H]1c1ncc(-c2ccc(-c3ccc(-c4cnc([C@@H]5CCCN5C(=O)Cc5ccsc5)[nH]4)cc3)cc2)[nH]1)c1ccccc1` [Example 84-73, methyl ((1R)-2-oxo-1-phenyl-2-((2S)-2-(5-(4′-(2-((2S)-1-(3-thienylacetyl)-2-pyrrolidinyl)-1H-imidazol-5-yl)-4-biphenylyl)-1H-imidazol-2-yl)-1-pyrrolidinyl)ethyl)carbamate] yielded an EC50 of 1 to 99 nM.
`CCN(CC)[C@H](C)C(=O)N1CCC[C@H]1c1ncc(-c2ccc(-c3ccc(-c4cnc([C@@H]5CCCN5C(=O)[C@@H](c5ccccc5)N(CC)CC)[nH]4)cc3)cc2)[nH]1` [Example M35, (2R)-1-((2S)-2-(5-(4′-(2-((2S)-1-((2R)-2-(diethylamino)-2-phenylacetyl)-2-pyrrolidinyl)-1H-imidazol-5-yl)-4-biphenylyl)-1H-imidazol-2-yl)-1-pyrrolidinyl)-N,N-diethyl-1-oxo-2-propanamine] gave an EC50 of 1 to 99 nM.
`COC(=O)N[C@@H](C)C(=O)N(C)[C@@H](C)c1ncc(-c2ccc(-c3ccc(-c4[nH]c([C@@H]5CCCN5C(=O)[C@H](C)NC(=O)OC)nc4C(F)(F)F)cc3)cc2)[nH]1` [Example J42.a, methyl ((1S)-2-((2S)-2-(5-(4′-(2-((1S)-1-((N-(methoxycarbonyl)-L-alanyl)(methyl)amino)ethyl)-1H-imidazol-5-yl)-4-biphenylyl)-4-(trifluoromethyl)-1H-imidazol-2-yl)-1-pyrrolidinyl)-1-methyl-2-oxoethyl)carbamate] gave an EC50 of 0.001 to 0.999 nM.

Reference: patent publication US8574563B2 (Bristol-Myers Squibb Company, priority 2006, dated 2013)
